Assay results: the supplement of paper PMC10307832

Assays:
Test in all cases: relative viability (nuclei count vs DMSO), 5 days (fraction); higher = more cells survive
[1] = compound: Cc1nc(C(=O)NCC(=O)O)c(O)c2ccc(Oc3ccccc3)cc12 [FG-4592] + C[C@@H](Oc1cc(-c2cnn(C3CCNCC3)c2)cnc1N)c1c(Cl)ccc(F)c1Cl [Crizotinib] (partner 1 µM)
How it was run: (§1)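 Relative viability was taken as the ratio of nuclei in treated wells to nuclei in vehicle wells. Lung cancer cell lines in 1536-well plates received compounds by pin tool one day after seeding, either one drug alone or a fixed anchor-drug dose plus five library-drug doses (not always all listed) in √10 steps. Nuclei were counted on 4× images after 5 days of treatment, and values are medians of duplicate plates.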

[2] = compound: Cc1nc(C(=O)NCC(=O)O)c(O)c2ccc(Oc3ccccc3)cc12 [FG-4592] + COc1cc2c(Oc3ccc(NC(=O)C4(C(=O)Nc5ccc(F)cc5)CC4)cc3F)ccnc2cc1OCCCN1CCOCC1 [Foretinib] (partner 0.25 µM)
How it was run: as §1

[3] = compound: CC1=CC(=C(N1C2=CC=C(C=C2)Cl)C)C(=O)CN3CCCCC3 [IU1-47] + Cc1nc(Nc2ncc(C(=O)Nc3c(C)cccc3Cl)s2)cc(N2CCN(CCO)CC2)n1 [Dasatinib] (partner 0.075 µM)
How it was run: as §1

[4] = compound: CC1=CC(=C(N1C2=CC=C(C=C2)Cl)C)C(=O)CN3CCCCC3 [IU1-47] + Cc1nc(NC(=O)N2CCC[C@H]2C(N)=O)sc1-c1ccnc(C(C)(C)C(F)(F)F)c1 [Alpelisib] (partner 2 µM)
How it was run: as §1

Row | Cell Line | relative viability ([1]; first compound 0.08 µM) | relative viability ([1]; first compound 0.253 µM) | relative viability ([1]; first compound 0.8 µM) | relative viability ([1]; first compound 2.53 µM) | relative viability ([1]; first compound 8 µM) | relative viability ([2]; first compound 0.08 µM) | relative viability ([2]; first compound 0.253 µM) | relative viability ([2]; first compound 0.8 µM) | relative viability ([2]; first compound 2.53 µM) | relative viability ([2]; first compound 8 µM) | relative viability ([3]; first compound 0.08 µM) | relative viability ([3]; first compound 0.253 µM) | relative viability ([3]; first compound 0.8 µM) | relative viability ([3]; first compound 2.53 µM) | relative viability ([3]; first compound 8 µM) | relative viability ([4]; first compound 0.08 µM) | relative viability ([4]; first compound 0.253 µM) | relative viability ([4]; first compound 0.8 µM) | relative viability ([4]; first compound 2.53 µM) | relative viability ([4]; first compound 8 µM)
1 | ChaGo-K-1 | 1.12 | 1.09 | 1.14 | 1.09 | 0.942 | 0.997 | 0.834 | 0.919 | 0.973 | 0.897 | 0.524 | 0.557 | 0.707 | 0.643 | 0.544 |  |  |  |  | 
2 | EBC-1 | 0.189 | 0.186 | 0.178 | 0.19 | 0.222 | 0.11 | 0.0946 | 0.106 | 0.0866 | 0.1 |  |  |  |  |  | 0.863 | 0.742 | 0.805 | 0.722 | 0.676
3 | EKVX | 1.08 | 0.816 | 1.23 | 0.977 | 1.02 | 0.744 | 0.804 | 0.773 | 0.717 | 1.04 | 0.564 | 0.577 | 0.691 | 0.34 | 0.389 | 1.21 | 1.08 | 1.04 | 1.12 | 0.741
4 | EMC-BAC-2 | 0.736 | 0.749 | 0.813 | 0.772 | 0.731 | 0.997 | 0.995 | 1.01 | 1.06 | 0.977 | 0.373 | 0.336 | 0.356 | 0.324 | 0.326 | 0.768 | 0.824 | 0.793 | 0.749 | 0.711
5 | EPLC-272H | 0.844 | 0.72 | 0.631 | 0.888 | 0.873 | 0.755 | 0.738 | 0.521 | 0.706 | 0.641 | 0.371 | 0.459 | 0.322 |  | 0.35 | 0.888 | 0.834 | 0.859 |  | 0.953
6 | H3255 | 0.963 | 0.79 | 0.827 | 0.917 | 1.05 | 0.848 | 0.752 | 0.881 | 0.903 | 0.947 | 0.371 | 0.491 | 0.385 | 0.366 | 0.387 | 0.696 | 0.708 | 0.754 | 0.818 | 0.671
7 | HARA | 1.06 | 0.967 |  | 1 | 0.977 | 0.834 | 0.87 | 0.896 | 0.885 | 0.878 | 0.273 | 0.184 | 0.325 |  | 0.276 | 1.02 | 1.13 | 0.925 | 1.1 | 0.604
8 | HCC-15 | 0.819 | 0.712 | 0.808 | 0.866 | 0.875 | 1.03 | 0.978 | 1.04 | 0.93 | 1.07 | 0.687 | 0.749 | 0.685 | 0.564 | 0.519 | 0.99 | 0.926 | 0.978 | 0.825 | 0.82
9 | HCC-44 | 0.754 | 0.798 | 0.878 | 0.805 | 0.82 |  |  |  |  |  |  |  |  |  |  | 0.942 | 0.822 | 0.783 | 0.825 | 0.78
